For this assay, the system named is P. falciparum 3D7 growth, pLDH absorbance. Description: P. falciparum 3D7 growth inhibition, dose response, strain 3D7 (AID 2305).

Our source for the IC50 values is PubChem BioAssay AID2305 (GlaxoSmithKline (GSK), 2010).

`COc1ccc(C(=O)CCC(=O)N(Cc2ccc(-c3ccc(CNCCc4ccc(S(C)(=O)=O)cc4)cn3)cc2)C2C[C@@H]3CC[C@H]2C3)cc1F` (stereo partly specified): the IC50 (commonly the concentration that inhibits the measured activity by half) was 0.93 µM.

On to `c1cc(-c2nc3ccccc3[nH]2)nc(-c2nc3ccccc3[nH]2)c1`, for which the IC50 is 1.12 µM.

With `CN1CCN(Cc2c(O)ccc3c(=O)c(Oc4ccc(C(C)(C)C)cc4)c(C(F)(F)F)oc23)CC1`, the IC50 was found to be 0.81 µM.

On to `N#Cc1ccc2c(c1)CN(C1CCC(NC(=O)c3cc(-c4ccc(Cl)cc4)cs3)CC1)CCC2` (stereo unspecified), for which the IC50 came to 0.96 µM. The IC50 values of the last two compounds are within 1.5-fold of each other.

In the case of `COc1ccccc1CCNc1nc(C)cc(N[C@@H](CC(C)C)C(=O)Nc2ccccc2)n1`, the IC50 is 1.28 µM.

Compound `Cc1cc(-c2ncc[nH]2)ccc1-c1ccc(C(=O)N2CCc3cc4c(cc32)C2(CCN(C)CC2)CO4)cc1` displayed an IC50 of 0.8 µM.

Turning to `N#Cc1ccc(C(=O)Nc2ccc(-c3cccc(CN4CCCC4)c3)cc2)cc1`, the concentration for half-maximal inhibition (IC50) was 1 µM. The IC50 values of the last two compounds are within 1.5-fold of each other.

`O=C(Nc1cccc(-c2ccc(CN3CCC(O)CC3)cc2)c1)c1ccc(Cl)cc1` returned an IC50 of 0.96 µM.

Compound `CCCOC(=O)C1=C(C)NC2=C(C(=O)CC(c3ccc(OC)c(OC)c3)C2)C1c1cccc(O)c1` (stereo unspecified) came in with an IC50 of 0.12 µM. This IC50 lies about 8-fold lower than the previous one.

`CN(C)Cc1cccc(-c2cc3c(-c4cnn(C)c4)c(Cl)cnc3[nH]2)c1` came in with an IC50 of 0.91 µM.

For `Cn1ccc2c3c(N)nc(N)nc3ccc21`, the IC50 was 0.9 µM.

In turn, `CCn1c(-c2nonc2N)nc2c(-c3cccc(NC(=O)Nc4ccccc4Cl)c3)ncc(OCCCN)c21` returned an IC50 of 0.67 µM.

With `C[C@@H](NC(=O)c1nn(-c2ccc(Cl)cc2)c(=O)c2ccccc12)C(C)(C)C`, the IC50 amounted to 1.12 µM.

With `CCNc1cc(C(=O)N[C@@H](Cc2ccccc2)[C@H](O)CN[C@H](C)c2ccccc2)cc(N2CCCC2=O)c1`, the IC50 came out at 0.05 µM.

In turn, `COc1ccc(C(=O)COc2cccc(/C=C/C(=O)O)c2)cc1OC` registered an IC50 of 1.32 µM.

The compound `CCOc1c(CNCCCNc2cc(=O)c3ccccc3[nH]2)cc(I)cc1C(C)(C)C` returned an IC50 of 0.7 µM.

The compound `Nc1nc(N)c2cc(C(F)(F)F)ccc2n1` yielded an IC50 of 1.13 µM.

`CCN(CC)CCN(Cc1ccc(-c2ccc(C(F)(F)F)cc2)cc1)C(=O)Cn1c(CCc2cccc(F)c2F)nc(=O)c2cc(F)c(F)cc21` gave an IC50 of 0.83 µM.

The compound `O=C(Nc1ccccc1)N1CCC(CN2CCOC(c3ccccc3)(c3ccccc3)C2)CC1` yielded an IC50 of 0.21 µM. This IC50 lies about 4-fold lower than the previous one.

In the case of `Clc1ncnc2scc(-c3ccc(Br)cc3)c12`, the IC50 worked out at 0.89 µM.

Take `O=C(N[C@@H](Cc1ccccc1)C(=O)NC1CCCCCC1)c1ccc(O)c(-c2ccc(Cl)c(Cl)c2)c1`: the IC50 is 0.33 µM.

With `CCN(CCCN1CCCCC1)c1cc(C)nc(Nc2cccc3c2CCCC3)n1`, the IC50 was determined as 1.03 µM.

On to `COc1cc(NC(=O)N2CCc3ccc(OCCN(C(C)C)C(C)C)cc32)cc(C(F)(F)F)c1`, for which the IC50 was 0.19 µM.

With `COc1ccc2nc(C)cc(NN=Cc3ccccc3Cl)c2c1`, the IC50 is 0.6 µM.

Consider `CC(C)n1ncc2c3c(N)nc(N)nc3ccc21`, for which the IC50 was found to be 0.33 µM.

`COc1ccc2nccc([C@@H](O)CN3CCC(NCc4nc5c([N+](=O)[O-])cccc5[nH]4)CC3)c2c1` registered an IC50 of 0.71 µM.

As to `CCn1ncc(Cl)c1CN(C)S(=O)(=O)c1ccc2ccccc2c1`, the IC50 was 0.82 µM.

For `Cc1ccccc1C1CCN(C2CCC(NC(=O)/C=C/c3cccc(Cl)c3)CC2)CC1` (stereo unspecified), the IC50 is 0.89 µM. The IC50 values of the last two compounds are within 1.5-fold of each other.

The compound `COc1cc(-c2nc(-c3ccc4c(c3)CCC4=NO)c(-c3ccncc3)[nH]2)ccc1OCCN1CCCCC1` gave an IC50 of 0.79 µM.

In turn, `Cc1nnsc1C(=O)Nc1cccc(-c2ccc(-c3nc4ccccc4[nH]3)cc2)c1` returned an IC50 of 0.87 µM.

Compound `Cc1nc2c(Nc3nc(-c4ccncc4)cs3)ncnc2n1-c1ccccc1Cl` came in with an IC50 of 0.18 µM. Against the preceding compound, the IC50 is about 4.8-fold lower.

With `CN1CCC(NCc2cccc(-c3ccc(S(=O)(=O)NCCN4CCCC4)c(F)c3)c2)CC1`, the IC50 is 1.01 µM.

The compound `CCCNCc1ccc(-c2ccc(CN(Cc3cnc(C)cn3)C(=O)/C=C/c3ccccc3C)cc2)nc1` showed an IC50 of 0.92 µM.

The compound `Cc1ccc(Nc2nccc(NCC(O)c3ccc(C(F)(F)F)cc3)n2)cc1` (stereo unspecified) gave an IC50 of 0.49 µM.

`C=CCC1OC(=O)c2cc(OC)cc(OC)c21` (stereo unspecified) gave an IC50 of 0.34 µM.

The compound `CO/C(=C\C=C\c1cc2cc(Cl)c(Cl)cc2[nH]1)C(=O)NCCCNC12CC3CC(CC(C3)C1)C2` had an IC50 of 0.73 µM.

`Nc1nc(N)c2c(ccc3c2ccn3CCCC(F)(F)F)n1` yielded an IC50 of 0.1 µM.

As for `Cn1cccc1C(=O)Nc1cccc(-c2nn3ccccc3c2-c2ccnc(Nc3ccc4c(c3)OCCO4)n2)c1`, the IC50 came to 1.35 µM.

In turn, `Clc1ccc(-c2cc(-c3csc(Nc4ccncc4)n3)on2)cc1` registered an IC50 of 0.13 µM. Against the preceding compound, the IC50 is about 10-fold lower.

`COc1cc(Cc2cnc(N)nc2N)ccc1Oc1ccc(N)cc1` returned an IC50 of 0.87 µM.

For the compound `COc1cc(NC(=O)c2c(-c3c(Cl)cccc3Cl)noc2C)c(OC)cc1Cl`, the IC50 is 0.92 µM. This IC50 and that of the compound before are within 1.5-fold of each other.

In turn, `CC(C)C[C@H](NC(=O)c1ccc(OCCN2CCOCC2)cc1)C(=O)N[C@H](/C=N/NC(=O)OC(C)(C)C)CCc1ccccc1` registered an IC50 of 0.16 µM.

For the compound `O=C(Nc1ccc(OC2CCN(Cc3ccc(F)cc3)CC2)c(Cl)c1)c1ccco1`, the IC50 is 0.3 µM.

As for `Cc1nnc2sc(-c3cccc(NC(=O)c4ccc(N5CCCCC5)c([N+](=O)[O-])c4)c3)nn12`, the IC50 was determined as 1.3 µM.

`COc1cccc(NC(=O)NC2CCN(c3ccnc(Nc4ccc(F)cc4)n3)C2)c1` (stereo unspecified) showed an IC50 of 0.57 µM.

`COc1cccc(C(=O)Nc2ccc(Nc3nc(C)cc(N4CCCCC4)n3)cc2)c1OC` had an IC50 of 1.02 µM.

Take `CC(C)CNCc1ccc(-c2cccc(CNc3ccc4ncccc4c3)c2)cc1`: the IC50 stood at 0.91 µM. This IC50 and that of the compound before are within 1.5-fold of each other.

In the case of `COc1ccccc1N1CCN(C(C(=O)NCc2ccc(C)cc2)c2ccc(C)cc2)CC1` (stereo unspecified), the IC50 stood at 0.93 µM.

The compound `CC(C)(C)c1cc(C(=O)N2CCN(c3cnccn3)CC2)n(Cc2ccccc2)n1` came in with an IC50 of 1.14 µM.

The compound `Cc1cc(NN=Cc2ccc(Cl)cc2)c2cccc(C)c2n1` had an IC50 of 0.72 µM.

In turn, `COc1cc(CCN(C)Cc2ccc(OC)c(OC)c2)ccc1NC(=O)c1cccc2c(=O)c3cccc(F)c3[nH]c12` displayed an IC50 of 0.2 µM. Compared with the last compound, the IC50 is about 3.6-fold lower.

Consider `COc1ccc(CCN(C)CCOc2ccc(NC(=O)COc3ccc4sc5ccccc5c(=O)c4c3)cc2)cc1OC`, for which the IC50 was 1.1 µM.

In turn, `COc1cc(F)c2ncc(Cl)c(CCN3CCC(NCc4ccc5c(c4)OCCO5)CC3)c2c1` displayed a half-inhibitory concentration (IC50) of 0.47 µM.

In the case of `CCCN(Cc1nnc(-c2ccco2)o1)C(=O)C1CCN(c2ncc(C(F)(F)F)cc2Cl)CC1`, the IC50 was 0.69 µM.

As for `CCCN1CCC2(CC1)NC(C(=O)NCCC(C)C)Cc1c2[nH]c2cc(Cl)ccc12` (stereo unspecified), the IC50 came out at 1.38 µM.

On to `CC(C)N1CCC(NC(=O)N2CCCN(c3ncnc4cc(-c5ccc(Cl)cc5)sc34)CC2)CC1`, for which the IC50 was found to be 1.94 µM.

Compound `COc1ccc(C(=O)Nc2cc(Cl)c3c(c2)C2CCCN2CC3)cc1C(F)(F)F` (stereo unspecified) yielded an IC50 of 0.75 µM. Against the preceding compound, the IC50 is about 2.6-fold lower.

`CC1(C)N=C(N)NC(NOCCCCCCONC2=NC(C)(C)N=C(N)N2)=N1`: the IC50 came out at 0.03 µM.

In turn, `CN(C)c1ccc(CN2CCC(NC(=O)c3ccc(-c4ccccc4Cl)s3)CC2)cc1` came in with an IC50 of 0.9 µM.

The compound `N#Cc1ccc(NC(=NCCc2c[nH]c3ccccc23)Nc2ccc(-c3ccccc3)cc2)c(O)c1` displayed an IC50 of 0.34 µM.

Compound `Fc1ccc(C=NNc2ccnc3ccccc23)cc1` showed an IC50 of 0.71 µM.

With `Clc1ccc(CNc2nc(NCCc3cnc[nH]3)nc(N3CCCC4CCCCC43)n2)cc1` (stereo unspecified), the IC50 was 0.59 µM.

Compound `COc1ccc2nccc([C@@H](O)CN3CCC(NC(=O)c4cc5c(F)cc(F)cc5[nH]4)CC3)c2n1` registered an IC50 of 1.39 µM.

Turning to `COC(=O)c1ccc2[nH]cc(C3CCN(CCC4CCN(C(=O)/C=C/c5ccc(Cl)c(Cl)c5)CC4)CC3)c2c1`, the IC50 was determined as 0.51 µM.

`Cc1cc(N)ncc1-c1ccc(NC(=O)Nc2cc(C(F)(F)F)ccc2F)cc1` gave an IC50 of 0.7 µM.

`Cc1noc(C)c1C(=O)N1CCc2cc3nccc(N4CCN5CCC[C@H]5C4)c3cc21` gave a concentration for half-maximal inhibition (IC50) of 0.87 µM.

Consider `CCC(C(=O)Nc1cc(=O)[nH]c2nc(-c3ccco3)nn12)c1ccccc1` (stereo unspecified), for which the IC50 came out at 0.84 µM. This IC50 and that of the compound before are within 1.5-fold of each other.

With `Cc1cc(C(F)(F)F)nn1-c1ccc(NC(=O)c2ccco2)cc1`, the IC50 came out at 0.73 µM.

Take `Cc1ccc(F)c(OCC2CCN(c3ccc(C(=O)NC4CC4)cn3)CC2)c1`: the IC50 was found to be 0.73 µM. This counts as sub-micromolar.

Compound `CCn1ncc2c(N3CCCC3=O)cc(C(=O)N[C@@H](Cc3ccccc3)[C@H](O)CNC(C)(C)c3cccc(C(F)(F)F)c3)cc21` showed an IC50 of 0.15 µM.

The compound `COc1ccccc1N1CCN(CCCCNC(=O)c2ccc(NC(=O)c3ccc4ccccc4c3)cc2)CC1` displayed an IC50 of 0.8 µM. Compared with the last compound, the IC50 is about 5.3-fold higher.

With `Cc1cc(Nc2ncc(Cl)c(Nc3ccccc3C(N)=O)n2)n[nH]1`, the 50% inhibitory concentration (IC50) was 0.81 µM.

In turn, `CCN(CC)CCc1ccc2c(=O)cc(CCc3cccc(F)c3F)n(CC(=O)N(C)Cc3ccc(-c4ccc(C(F)(F)F)cc4)cc3)c2c1` displayed an IC50 of 0.86 µM.

`Cc1cc(-c2ccc(S(=O)(=O)Nc3cc4c(cc3OC(C)C)CCN(C)CC4)cc2)ccc1Cl` yielded an IC50 of 0.9 µM.

Consider `CS(=O)(=O)CCNCc1ccc(-c2ccc3c(Nc4ccc(F)cc4Cl)ccnc3c2)o1`, for which the IC50 was determined as 0.74 µM.

Compound `COc1ccc2nccc([C@H](O)CN3CCC(NCc4ccc5c(c4C)OCCO5)CC3)c2n1` gave an IC50 of 0.89 µM. The IC50 values of the last two compounds are within 1.5-fold of each other.

In turn, `CS(=O)(=O)CCNCc1ccc(-c2ccc3c(Nc4ccc(Oc5ccccn5)cc4)ccnc3c2)o1` registered an IC50 of 0.71 µM.

Regarding `c1cncc(CNc2ncc(-c3ccsc3)c(-c3nccs3)n2)c1`, the 50% inhibitory concentration (IC50) was found to be 1.38 µM.

`Cc1nc(-c2ccc(-c3ccc(C(=O)Nc4ccc(I)c(OCC5CCCN5C)c4)cc3)c(C)c2)no1` (stereo unspecified) had an IC50 of 0.03 µM.

Compound `C=C[C@H]1CN2CC[C@H]1C[C@H]2[C@H](O)c1cc(/C=C/c2ccc(F)cc2)nc2ccc(OC)cc12` yielded an IC50 of 0.03 µM. This counts as double-digit nanomolar.

Regarding `O=C(/C=C/c1ccc(Cl)c(Cl)c1)NCCCCCN1CCC(CCNC(=O)/C=C/c2cc(C(F)(F)F)ccc2F)CC1`, the IC50 came out at 0.77 µM.

In the case of `CSc1ccc(CN2CCC(CNC(=O)c3cc(-c4ccccc4F)cs3)C2)cc1` (stereo unspecified), the IC50 stood at 1.14 µM.

`CC(C)C[C@H](NC(=O)c1ccc(OCCN2CCOCC2)cc1)C(=O)N[C@H](/C=N/N1CC(=O)NC1=O)CCc1ccccc1`: the IC50 worked out at 0.28 µM.

Regarding `COc1cccc(NC(=O)c2nc(N3CCN(c4ccncc4)CC3)ccc2Cl)c1`, the IC50 was 0.92 µM.

For the compound `Oc1c(CN2CCCC(C(F)(F)F)C2)cc(Cl)c2ccccc12` (stereo unspecified), the IC50 turned out to be 1.57 µM.

Compound `CCCc1nc2c(N3CCCN(C(=O)NC4CCCCC4)CC3)cccc2n1Cc1ccccn1` registered an IC50 of 1.16 µM.
